According to patent US5116848A, “N-(((2,6-disubstituted)phenyl)-N-diarylalkyl)ureas as antihyperlipidemic and antiatherosclerotic agents” (priority 1988, dated 1992):

How the values were obtained:
[1] = PCC in vivo screen, blood total cholesterol in cholesterol-fed rats; conditions: male Sprague-Dawley rats, diet with 5.5% peanut oil, 1.5% cholesterol, 0.3%-0.5% cholic acid, 0.05% drug in diet, one week
From the text: In one in vivo screen, designated PCC, male Sprague-Dawley rats (approximately 200 g body weight) are randomly divided into groups and provided ad libidum a regular chow diet (Purina No. 5002, Ralston Purina Co., 711 West Fuesser Road, Mascoutah, Ill., 62224, USA), supplemented with 5.5% peanut oil, 1.5% cholesterol, and 0.3%-0.5% cholic acid, together with 0.05% of the test drug which is admixed into the diet. After one week the animals are etherized and a blood sample is taken from the heart and mixed with 0.14% ethylenediamine tetraacetic acid (EDTA) to measure the total cholesterol.

[2] = biological target: T1, acyl-CoA:cholesterol acyltransferase (ACAT) (Oryctolagus cuniculus, UniProt G1SFD9); assay: in vitro ACAT inhibition test (radiolabeled cholesterol oleate formed from radiolabeled oleic acid, rabbit intestinal microsomes); format: biochemical; conditions: inhibition of acylation of cholesterol by oleic acid
T1 construct: a tissue preparation containing rabbit intestinal microsomes; from tissue; host or cells: rabbit intestinal microsomes
T1 sequence (G1SFD9 1-524): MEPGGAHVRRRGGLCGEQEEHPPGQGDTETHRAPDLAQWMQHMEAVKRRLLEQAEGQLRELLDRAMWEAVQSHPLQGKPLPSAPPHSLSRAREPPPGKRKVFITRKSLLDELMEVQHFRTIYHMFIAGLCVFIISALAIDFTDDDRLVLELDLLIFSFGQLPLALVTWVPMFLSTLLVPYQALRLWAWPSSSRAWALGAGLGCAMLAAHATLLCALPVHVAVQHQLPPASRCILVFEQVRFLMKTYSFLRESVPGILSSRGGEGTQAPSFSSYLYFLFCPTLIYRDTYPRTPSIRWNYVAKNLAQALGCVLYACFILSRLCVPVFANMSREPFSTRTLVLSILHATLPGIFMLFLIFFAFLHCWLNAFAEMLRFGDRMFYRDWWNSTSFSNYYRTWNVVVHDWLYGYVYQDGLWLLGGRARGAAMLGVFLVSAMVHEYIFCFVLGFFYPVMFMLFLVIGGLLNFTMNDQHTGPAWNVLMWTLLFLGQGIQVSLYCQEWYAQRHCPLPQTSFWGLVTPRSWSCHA
From the text: As shown by the data presented below in Table 1, the compounds of the present invention are potent inhibitors of the enzyme acyl-CoA:cholesterolacyltransferase (ACAT), and are thus effective in inhibiting the esterification and transport of cholesterol across the intestinal cell wall. The compounds of the present invention are thus useful in pharmaceutical formulations for the treatment of hypercholesterolemia or atherosclerosis. The ability of representative compounds of the present invention to inhibit ACAT was measured using an in vitro test more fully described in Field, F. J. and Salone, R. G., Biochemica et Biophysica 712:557-570 (1982). The test assesses the ability of a test compound to inhibit the acylation of cholesterol by oleic acid by measuring the amount of radio-labeled cholesterol oleate formed from radiolabeled oleic acid in a tissue preparation containing rabbit intestinal microsomes. The data appear in Table 1 where they are expressed as IC50 values; i.e. the concentration of test compound required to inhibit 50% expression of the enzyme.

Row | Structure (SMILES) | Blood Cholesterol [1] [mg/dL] | Blood Cholesterol % Change [1] [%] | IC50 [2] [µM]
1 | CC(C)c1cccc(C(C)C)c1NC(=O)NCC(c1ccccc1)c1ccccc1 [Example 4, N-[2,6-bis(1-methylethyl)phenyl]-N'-(2,2-diphenylethyl)urea] | 95 | -52 | 0.024
2 | CCc1cccc(CC)c1NC(=O)NC(c1ccccc1)c1ccccc1 [Example 2, N-(2,6-Diethylphenyl)-N'-(diphenylmethyl)urea] | 127 | -43 | 0.08
3 | CCc1cccc(CC)c1NC(=O)NC(Cc1ccccc1)c1ccccc1 (stereo not shown) [Example 1, N-(2,6-Diethylphenyl)-N'-(1,2-diphenylethyl)urea] | 147 | -29 | 0.093
4 | CCc1cccc(CC)c1NC(=O)NCC(c1ccccc1)c1ccccc1 [Example 3, N-(2,6-Diethylphenyl)-N'-(2,2-diphenylethyl)urea] | 105 | -53 | 0.091
5 | CC(C)c1cccc(C(C)C)c1NC(=O)NC(c1ccccc1)c1ccccc1 [Example 5, N-[2,6-bis(1-methylethyl)phenyl)-N'-(diphenylmethyl)urea] |  |  | 0.045
